# Assay: H2O/Cl– coligand exchange by UV–vis titration with chloride ions
# Format: physicochemical
# Conditions: RhCp* complexes titrated at pH 7.4
# Procedure: When the isolated complexes (1–4) are dissolved in water, their chlorido coligand can be replaced by water, or vice versa in the aqua complexes [M(arene)(HL)(H2O)]^2+, the H2O → Cl^– exchange process can take place in the presence of chloride ions. The chloride ion affinity of the complexes was also investigated by UV–vis spectrophotometry. RhCp* and RuCym complexes were titrated with chloride ions at pH 7.4 and 6.0, respectively. For this experiment, pH values were chosen at which the formation of the mixed hydroxido species is negligible. A representative spectrum series for complex (4) is shown in Figure S27, and the calculated conditional exchange constants (logK’ (H2O/Cl^–)) are given in Table 2 and in Figure S23. […] The complexes of the amino acid hybrids HQCl-D-Pro and HQCl-D-hPro have lower logK’ (H2O/Cl^–) constants most likely due to the repulsive effect of the nearby COO^– group.[26]
substance,measurement,value
[RhCp*(HQCl-Pip)Cl]Cl [(3)],logK’ (H2O/Cl–),2.21 ± 0.03
